Data taken from ChEMBL document CHEMBL1144623, “Sesterterpene sulfates as isocitrate lyase inhibitors from tropical sponge Hippospongia sp” (Bioorg Med Chem Lett, 2007).

Assays:
[1] = Inhibition of Magnaporthe grisea Guy 11 malate synthase; design: species or system Pyricularia grisea
[2] = target: Isocitrate lyase (Magnaporthe oryzae (strain 70-15 / FGSC 8958) (Rice blast fungus)(Pyricularia oryzae), UniProt P0CT06); experiment: Inhibition of Magnaporthe grisea Guy 11 isocitrate lyase; design: species or system Pyricularia grisea
Sequence of Isocitrate lyase (P0CT06 whole entry): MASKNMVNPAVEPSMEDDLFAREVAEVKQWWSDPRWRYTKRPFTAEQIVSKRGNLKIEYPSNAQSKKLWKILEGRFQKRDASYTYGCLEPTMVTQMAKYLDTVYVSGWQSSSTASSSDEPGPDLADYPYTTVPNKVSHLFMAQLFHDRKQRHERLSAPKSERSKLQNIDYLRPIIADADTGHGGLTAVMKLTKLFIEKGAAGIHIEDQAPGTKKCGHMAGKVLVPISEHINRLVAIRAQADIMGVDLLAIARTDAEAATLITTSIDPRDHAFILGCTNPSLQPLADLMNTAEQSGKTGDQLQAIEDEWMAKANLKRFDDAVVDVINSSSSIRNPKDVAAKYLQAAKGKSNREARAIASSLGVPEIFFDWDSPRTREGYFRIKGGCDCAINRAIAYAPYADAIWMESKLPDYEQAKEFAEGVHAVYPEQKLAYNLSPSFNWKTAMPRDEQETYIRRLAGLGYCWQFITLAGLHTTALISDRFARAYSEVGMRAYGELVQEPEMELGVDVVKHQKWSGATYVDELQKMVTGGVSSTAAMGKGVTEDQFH

[3] = system: Pyricularia grisea; experiment: Reduction of appressorium formation in wild type Magnaporthe grisea Guy 11 after 14 hrs; type: functional, organism-based
[4] = system: Pyricularia grisea; experiment: Growth inhibition of Magnaporthe grisea Guy 11 in presence of sodium acetate after 6 days; type: functional; details: Guy 11, 144 h
[5] = system: Pyricularia grisea; experiment: Growth inhibition of Magnaporthe grisea Guy 11 in presence of glucose after 6 days; type: functional; details: Guy 11, 144 h

SMILES	IC50 [1]	IC50 [2]	Activity [3]	MIC [4]	MIC [5]
C=C1CCC[C@@H]2[C@@](C)(CCC(CCCc3ccoc3)COS(=O)(=O)O)[C@H](C)CC[C@]12C (some centres undefined) [HALISULFATE 5]	1150 µM	67.4 µM	Dose-dependent effect	107 µM	853 µM
CC1=CC[C@H]2C(C)(C)CCC[C@]2(C)[C@H]1C[C@@H](O)[C@H](C)CCC/C(C)=C/Cc1cc(O)ccc1O [HYDROHALISULFATE 1]	274 µM	15 µM	Dose-dependent effect	105 µM	843 µM
O=C(O)CC[N+](=O)[O-]	1570 µM	92.4 µM	–	2940 µM	> 3360 µM
CC1=CC[C@H]2C(C)(C)CCC[C@]2(C)[C@H]1C[C@@H](OS(=O)(=O)O)[C@H](C)CCC/C(C)=C/Cc1cc(O)ccc1O [HALISULFATE 1]	227 µM	12.6 µM	Dose-dependent effect	87.7 µM	701 µM
